Some test systems named below: RXF-631 renal; OVCAR-5 ovarian; M19-MEL melanoma; SNB-78 CNS; A549 NSCLC; MOLT-4 leukemia; COLO 205 colon; HCT-15 colon.
Test in all cases: growth of human tumour cells (NCI), 48 h

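In this assay, cells in 96-well plates receive the compound at five concentrations for 48 hours. Endpoints are linearly interpolated between the surrounding concentrations. GI50 = concentration required for 50% inhibition of growth. TGI denotes the concentration required for complete inhibition of growth.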 Where only a bound is given, the exact number is not on record here.

This note sets out measurements from PubChem BioAssay (NCI).

Take `COc1ccc(-c2oc3c(OC)c(OC)c(OC)c(O)c3c(=O)c2OC)cc1O`: the TGI in the assay on RXF-631 renal was 35.8 µM; in the assay with OVCAR-5 ovarian, greater than 100 µM; in the assay with M19-MEL melanoma, 31.8 µM; with SNB-78 CNS, greater than 100 µM; with A549 NSCLC it was 12.3 µM; with MOLT-4 leukemia it was 12.7 µM. For the same molecule, the TGI in the assay with COLO 205 colon stood at 23.5 µM. Besides, the GI50 in the assay with M19-MEL melanoma, with SNB-78 CNS and in the assay on A549 NSCLC was less than 0.01 µM throughout.

For `C[N+](C)(C)C1CC([N+](C)(C)C)C2c3ccccc3C21` (stereo not drawn), the TGI in the assay on RXF-631 renal, in the assay with OVCAR-5 ovarian, with M19-MEL melanoma, with SNB-78 CNS, with A549 NSCLC and with HCT-15 colon was greater than 100 µM each time. The molecule also came in with a TGI in the assay with COLO 205 colon greater than 100 µM.

In the case of `CN(C)CCN(C)C(=O)c1cccc2cccc(C(=O)O)c12`, the TGI with RXF-631 renal, with OVCAR-5 ovarian, in the assay on M19-MEL melanoma, in the assay with SNB-78 CNS, in the assay on A549 NSCLC and with MOLT-4 leukemia was greater than 100 µM in each case. Moreover, the TGI in the assay on HCT-15 colon and with COLO 205 colon was greater than 100 µM each time.

In the case of `C/C(=C\C(C[C@](C)(O)C(O)CCC#C[Si](C)(C)C)S(=O)(=O)c1ccccc1)CC/C=C/CO[Si](C)(C)C(C)(C)C` (stereo partly drawn), the TGI with RXF-631 renal turned out to be 23.9 µM; in the assay on OVCAR-5 ovarian it was 26.9 µM; in the assay with M19-MEL melanoma it was 32.5 µM; in the assay on SNB-78 CNS it was 35.6 µM; in the assay on A549 NSCLC it was 30.2 µM; in the assay with MOLT-4 leukemia it was 23.1 µM. In addition, the TGI in the assay on HCT-15 colon was 34.4 µM.

On to `Cc1[nH]c2ccccc2c1C1=NO/C(=N\O)C(c2c(C)[nH]c3ccccc23)C1` (stereo not drawn), for which the TGI with RXF-631 renal was greater than 100 µM; with OVCAR-5 ovarian, greater than 100 µM; with M19-MEL melanoma it was greater than 100 µM; in the assay on SNB-78 CNS it was greater than 100 µM; in the assay on A549 NSCLC it was greater than 100 µM; in the assay on MOLT-4 leukemia, 69.6 µM. Besides, the values for the TGI in the assay with HCT-15 colon and with COLO 205 colon were greater than 100 µM and 41 µM, respectively.

With `CCC[CH2][Sn]1([CH2]CCC)[O]CC[S]1`, the GI50 with RXF-631 renal is 0.285 µM; in the assay with OVCAR-5 ovarian it was 1.39 µM; with M19-MEL melanoma, 0.475 µM; with SNB-78 CNS it was 0.494 µM; in the assay with A549 NSCLC, 2.21 µM; in the assay on MOLT-4 leukemia it was 0.37 µM. Besides, the GI50 was 0.799 µM in the assay with HCT-15 colon and 0.969 µM with COLO 205 colon. In addition, the TGI is 1.34 µM in the assay with RXF-631 renal; 2.72 µM in the assay on OVCAR-5 ovarian; 2.75 µM with M19-MEL melanoma; 2.26 µM in the assay on SNB-78 CNS; 6.03 µM in the assay with A549 NSCLC; 2.4 µM with MOLT-4 leukemia. Also, the results for the TGI in the assay with HCT-15 colon and in the assay with COLO 205 colon were 2.25 µM and 3.29 µM, respectively.

On to `O=C(O)CCSC(=O)Nc1cccc2ccccc12`, for which the TGI in the assay with RXF-631 renal, with OVCAR-5 ovarian, in the assay on M19-MEL melanoma, in the assay on SNB-78 CNS, in the assay on A549 NSCLC and in the assay on MOLT-4 leukemia was greater than 100 µM each time. In addition, the TGI with HCT-15 colon and with COLO 205 colon was greater than 100 µM in each case.

Regarding `O=[N+]([O-])c1cc(I)cc(/C=N/NS(=O)(=O)c2ccc(Cl)cc2)c1O`, the TGI in the assay on RXF-631 renal was 45.3 µM; in the assay on OVCAR-5 ovarian it was 71.6 µM; in the assay with M19-MEL melanoma it was 56.9 µM; in the assay with SNB-78 CNS, 70.9 µM; in the assay with A549 NSCLC, greater than 100 µM; in the assay on MOLT-4 leukemia, 51.5 µM. In addition, the TGI in the assay on HCT-15 colon is 38.7 µM; in the assay on COLO 205 colon, 33.1 µM.

For the molecule `COc1cc(/C=C2\NC(=O)C3Cc4c(OC)c(C)c(OC)c(OC)c4C2N3C)c(OC)c(C)c1OC` (stereo not drawn), the TGI in the assay on RXF-631 renal, with OVCAR-5 ovarian, in the assay with M19-MEL melanoma, with SNB-78 CNS, with A549 NSCLC and with MOLT-4 leukemia was greater than 100 µM throughout. In addition, the TGI in the assay on COLO 205 colon is greater than 100 µM.

As to `O=c1c(C(c2ccc([N+](=O)[O-])cc2)c2c(O)c3ccccc3n(-c3ccccc3)c2=O)c(O)c2ccccc2n1-c1ccccc1`, the TGI is 44.6 µM in the assay on RXF-631 renal; greater than 100 µM with OVCAR-5 ovarian; greater than 100 µM in the assay with M19-MEL melanoma; greater than 100 µM with SNB-78 CNS; greater than 100 µM in the assay on A549 NSCLC; 41.9 µM with MOLT-4 leukemia. The values for the TGI with HCT-15 colon and with COLO 205 colon were 30.7 µM and 63.4 µM, respectively.

On to `O=C(CC1(O)C(=O)Nc2ccccc21)c1ccc(Cl)cc1Cl` (stereo not drawn), for which the TGI in the assay on RXF-631 renal, with OVCAR-5 ovarian, in the assay with M19-MEL melanoma, with SNB-78 CNS, in the assay on A549 NSCLC and with MOLT-4 leukemia was greater than 100 µM throughout. The TGI in the assay on HCT-15 colon and in the assay with COLO 205 colon was greater than 100 µM in each case.

Turning to `CO/C=C(\Br)c1ccc2c(c1)OCO2`, the TGI in the assay with RXF-631 renal, with OVCAR-5 ovarian, in the assay on M19-MEL melanoma, in the assay with SNB-78 CNS, with A549 NSCLC and with MOLT-4 leukemia was greater than 100 µM in each case.

Consider `COc1ccc([Se][Se]c2ccc(OC)cc2OC)c(OC)c1`, for which the TGI in the assay on RXF-631 renal was 59.2 µM; in the assay with M19-MEL melanoma, 4.68 µM; with SNB-78 CNS it was 7.04 µM; in the assay with A549 NSCLC it was greater than 100 µM; in the assay on MOLT-4 leukemia, 19.2 µM; with HCT-15 colon it was 4.33 µM. Also, in the assay with COLO 205 colon, the TGI was greater than 100 µM.
